Where no end group is shown, it is not given here. [ ]: non-standard residue; d: D form.

Assay [1] addresses cytochrome c/CL complex (Equus caballus, UniProt P00004). Briefly: Peroxidase activity of cytochrome c/cardiolipin complex (Amplex Red). The assay is classed as biochemical. Conditions: 10 μM peptide; 2 μM cytochrome c; cardiolipin 100 μg/ml. The text has this: The six coordination of the heme in cytochrome c prevents direct interaction of H2O2 with the catalytic metal site, and native cytochrome c in solution is a poor peroxidase. Upon interaction with CL, cytochrome c undergoes a structural change with rupture of the Fe-Met80 coordination. […] The mechanism of action of cytochrome c peroxidase is similar to that of other peroxidases, such as horse radish peroxidase (HRP). Thus it is possible to use the amplex red-HRP reaction to investigate cytochrome c peroxidase activity. In the presence of peroxidase, amplex red (AR) reacts with H2O2 to form the red-fluorescent oxidation product, resorufin (Ex/Em=571/585).
Cytochrome c (2 μM) was mixed with CL (25 μg/ml) and 10 μM H2O2 in 20 mM HEPES, pH 7.4. Amplex red (50 μM) was then added and fluorescence emission monitored in real time using Hitachi F4500 fluorescence spectrophotometer. Addition of amplex red elicited rapid increase in fluorescence signal due to resorufin formation, providing direct evidence for peroxidase activity of cytochrome c/CL complex (FIG. 19A).
Assessment of cytochrome c peroxidase activity was achieved using the Amplex® Red assay (Invitrogen/Life Technologies, Carlsbad, Calif.). Amplex® Red is a reagent that reacts with H2O2 in a 1:1 stoichiometry to produce highly fluorescent resorufin (λex/λem=570/585) in the presence of a peroxidase. In this assay, cytochrome c is added in place of horseradish peroxidase. 2 μM cytochrome c was incubated with cardiolipin or cardiolipin-POPC liposomes (10 μg/ml) for 1 min in 20 mM HEPES (pH 7.4) or deionized water prior to the addition of 50 μM Amplex® Red reagent and 10 μM H2O2, and the reaction was allowed to proceed for an additional 5 minutes. The continuous time course data were obtained using Hitachi F-4500 fluorescence spectrophotometer. When comparing the different SS peptide analogs (10 μM) in inhibiting peroxidase activity cytochrome c (2 μM) in the presence of cardiolipin (100 μg/ml), a microplate spectrofluorometer (Molecular Devices, Sunnyvale, Calif.) was used. Horseradish peroxidase (HRP) was used for comparison, and the HRP concentration (0.001 U/ml) was optimized to match the rate of Amplex® Red peroxidation by cardiolipin-cytochrome c complex.

A short description of assay [2]: Fluorescence spectroscopy of labelled peptide with other phospholipids. The assay is classed as binding. Conditions: POPA, DPPG, POPS, cardiolipin. How it is done:
1-palmitoyl-2-oleoyl-sn-glycero-3-phosphocholine (POPC), 1-palmitoyl-2-oleoyl-sn-glycero-3-phosphate (POPA), 1-palmitoyl-2-oleoyl-sn-glycero-3-phospho-L-serine (POPS), 1-palmitoyl-2-oleoyl-sn-glycero-3-phosphoethanolamine (PE), and 1,2-dipalmitoyl-sn-glycero-3-phospho-(1′-rac-glycerol) (DPPG) were obtained from Avanti Polar Lipids Inc (Alabaster, Ala.).
Changes in the emission intensity of the [atn]SS-02 and the [ald]SS-02 were measured using a Hitachi F-4500 fluorescence spectrophotometer. The different solvents used to dissolve the various phospholipids (chloroform, methanol and ethanol) had negligible effect on the fluorescence spectrum of [atn]SS-02 and [ald]SS-02. All experiments were done in low ionic solution (deionized water) to optimize electrostatic interactions of peptides with phospholipids.

The target in assay [3] is cytochrome c/cardiolipin complex (Equus caballus, UniProt P00004). Description: Soret circular dichroism of cytochrome c with cardiolipin. The assay is classed as biochemical. Conditions: 10 μM cytochrome c. The method, then:
Circular dichroism (CD) was carried out to examine the effects of the peptides on protecting the heme environment of cytochrome c from the acyl chain of CL. For heme proteins, the Soret CD spectrum is strictly correlated with the heme pocket conformation. In particular, the negative 416-420 nm Cotton effect is considered diagnostic of Fe(III)-Met80 coordination in native cytochrome c (Santucci and Ascoli, 1997). […] CD spectra were obtained using AVIV CD Spectrometer Model 410.
Changes in the Soret CD spectrum of cytochrome c (10 μM) were recorded in the absence (dotted line) and presence (dashed line) of 30 μg/ml CL, plus addition of different peptides (10 μM) (solid line) (FIG. 14). CD measurements were carried out using 20 mM HEPES, pH 7.5, at 25° C. and expressed as molar ellipticity (A) (m Deg). […] Accordingly, aromatic-cationic peptides of the present disclosure are useful for the prevention or treatment of diseases or disorders characterized by dysregulation of cardiolipin and/or cytochrome c, and/or diseases or disorders characterized by dysregulation of the cardiolipin/cytochrome c interaction. In addition, aromatic-cationic peptides of the present disclosure are useful to protect the heme environment of cytochrome c from the acyl chain of cardiolipin.
Circular Dichroism (CD) spectra were collected with an AVIA 62 DS spectrophotometer equipped with a sample temperature controller. CD spectra of the Soret region (370-450 nm) were recorded with 10-mm path length cells containing 20 mM Hepes, pH 7.4, and 10 μM cytochrome c, in the presence or absence of 30 μg/ml cardiolipin and different SS peptide analogs (SS-02, [atn]SS-02, [ald]SS-02, and SS-31). The maximum lipid concentration was kept low to avoid spectral distortions due to excessive light scattering. All measurements were done at 25° C. All spectra were corrected for background, and the final spectrum shown represents the average of at least three experiments.

The target of assay [4] is cardiolipin-cytochrome c complex (Equus caballus, UniProt P00004). Briefly: Cytochrome c reduction in the presence of cardiolipin. The assay is classed as biochemical. The method, then:
Reduction of cytochrome c (20 μM) was induced by the addition of glutathione (500 μM) in the absence or presence of CL (100 μg/ml) (FIG. 15A). Reduction of cytochrome c was monitored by absorbance at 550 nm using a 96-well UV-VIS plate reader (Molecular Devices). Addition of CL decreased the rate of cytochrome c reduction by half.
The time course of cytochrome c reduction by ascorbate was recorded at 550 nm and 570 nm using a 96-well plate reader (Molecular Devices, Sunnyvale, Calif.). For all reactions, cytochrome c was preincubated with cardiolipin in the presence or absence of SS peptides for 1 min. […] Ascorbate (50 μM) was added to initiate the reduction of cytochrome c, and the absorbance was recorded for 5 min. The rate of reduction was calculated based on slope of the change in absorbance intensity of 550 nm over 570 nm.

Assay [5] concerns the target cytochrome c and cardiolipin (Equus caballus, UniProt P00004). Briefly: Oxidation of ferrous cytochrome c by cardiolipin (A550). The assay is classed as biochemical. Conditions: 20 μM cytochrome c reduced by 50 μM ascorbic acid; 100 μg/ml cardiolipin. The method, then:
Cytochrome c (20 μM) was reduced by 50 μM ascorbic acid until all available functionally active cytochrome c was reduced. The reduction of cytochrome c was monitored by the appearance of a peak at 550 nm in its absorbance spectrum (Molecular Devices, Sunnyvale, Calif.). […] The rate of oxidation was calculated based on slope of the change in absorbance intensity of 550 nm over 570 nm.

Assay [6] concerns isolated rat kidney mitochondria. Briefly: O2 consumption in isolated mitochondria. The assay is classed as biochemical. Conditions: 400 μM ADP. The method, then: (§1) Fresh mitochondria were isolated from rat kidney as described previously. Electron flux was measured by O2 consumption (Oxygraph Clark electrode) as previously described using different substrates for C1 (glutamate/malate), C2 (succinate), and C3 (TMPD/ascorbate). Assays were carried out under low substrate conditions in order to avoid saturating the enzyme reactions. ATP production in isolated mitochondria was determined kinetically using the luciferase method (Biotherma) in a 96-well luminescence plate reader (Molecular Devices). The initial maximal rate for ATP synthesis was determined over the first minute.
Oxygen consumption of isolated rat kidney mitochondria was determined using the Oxygraph (FIG. 5). Rates of respiration were measured in the presence of different concentrations of SS-31 in state 2 (400 μM ADP only), state 3 (400 μM ADP and 500 μM substrates) and state 4 (substrates only). All experiments were done in triplicate with n=4−7. […] Accordingly, aromatic-cationic peptides of the present disclosure are useful for promoting electron transfer to oxygen without uncoupling mitochondria, increasing O2 consumption, and treating diseases or conditions related to dysregulation of O2 consumption in mitochondria.
(§2) SS-20 or SS-31 was added at 100 μM concentrations to isolated mitochondria in respiration buffer containing 0.5 mM succinate (complex II substrate) and 400 μM ADP. Similar increases in O2 consumption were observed when low concentrations of complex I substrates (glutamate/malate) were used (data not shown). […] Accordingly, targeting SS-20 and SS-31 to the IMM can facilitate electron flux in the electron transport chain and improve ATP synthesis, especially under conditions of reduced substrate supply.
SS-20 or SS-31 was added at 10 μM or 100 μM concentrations to isolated mitochondria in respiration buffer containing glutamate/malate (complex I substrate), 0.5 mM succinate (complex II substrate) or 3 μM TMPD/1 mM ascorbate (direct reductant of cytochrome c). 400 μM ADP was added to initiate State 3 respiration.

Assay [7] concerns the target cytochrome c (Equus caballus, UniProt P00004). Briefly: Cytochrome c reduction kinetics (absorption spectroscopy). The assay is classed as biochemical. Conditions: glutathione (GSH) as reducing agent; absorbance at 550 nm. How it is done:
Increasing amounts of aromatic-cationic peptides were added to a solution of oxidized cytochrome c. The formation of reduced cytochrome c was monitored by absorbance at […]. The rate of cytochrome c reduction was determined by non-linear analysis (Prizm software).
Time-resolved UV-Visible absorption spectroscopy was used to study the electron transport process of cytochrome c in the presence of peptides. Reduced cytochrome c was monitored by absorbance at a broad-band spectral range (200-1100 nm). The absorption changes were recorded with a UV/Visible spectrophotometer (Ultrospec 3300 pro, GE) in quartz cells with path lengths of 1 or 2 mm. N-acetylcysteine (NAC) and glutathione were used as electron donors to reduce oxidized cytochrome c. The rate constant of cytochrome c reduction was estimated by adding various concentrations of peptides. The dose dependence of the peptides was correlated to the cytochrome c reduction kinetics.
Absorption spectroscopy (UltroSpec 3300 Pro; 220-1100 nm) was used to determine if SS-31 modulates cytochrome c reduction (FIG. 1). Reduction of cytochrome c with glutathione is associated with multiple shifts in the Q band (450-650 nm), with a prominent shift at 550 nm. […] Accordingly, the aromatic-cationic peptides of the present disclosure are useful for altering the structure and oxidation state of cytochrome c, and are useful for the prevention or treatment of diseases or disorders characterized by dysregulation of cytochrome c.
Reduction of cytochrome c was monitored by increase in absorbance at 550 nm. […] Similar results were obtained using N-acetylcysteine (NAC) as a reducing agent (not shown). […] Accordingly, aromatic-cationic peptides of the present disclosure are useful for the prevention or treatment of diseases or disorders characterized by dysregulation of cytochrome c and are useful for facilitating cytochrome c reduction.

Assay [8] has as its system isolated mitochondria. Description: ATP synthesis in isolated mitochondria. The assay is classed as biochemical, rat. Conditions: mitochondria energized with low concentrations of succinate. The method, then:
as §1
The rate of mitochondrial ATP synthesis was determined by measuring ATP in respiration buffer collected from isolated mitochondria 1 min after addition of […] (FIG. 6). ATP was assayed by HPLC. All experiments were carried out in triplicate, with n=3. […] Accordingly, aromatic-cationic peptides of the present disclosure are useful for increasing ATP synthesis in mitochondria and for treating diseases or disorder characterized by dysregulation of ATP synthesis.
as §2
Increase in electron flux in the electron transport chain can either result in increase in ATP synthesis or increase in electron leak and generation of free radicals. ATP synthesis in isolated mitochondria was assayed by HPLC. […] Accordingly, aromatic-cationic peptides of the present disclosure are useful for increasing ATP synthesis in mitochondria and for treating diseases or disorder characterized by dysregulation of ATP synthesis.

cardiolipin-cytochrome c complex, sequence (P00004 2-105 limits assumed, one chain of several): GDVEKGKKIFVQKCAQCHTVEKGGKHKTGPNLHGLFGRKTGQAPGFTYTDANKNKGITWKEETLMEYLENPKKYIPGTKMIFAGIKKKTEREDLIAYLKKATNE
cytochrome c/cardiolipin complex, sequence (P00004 2-105 limits assumed, one chain of several): as above
cytochrome c and cardiolipin, sequence (P00004 2-105 limits assumed): as the sequence (P00004 2-105 limits assumed, one chain of several) above
cytochrome c/CL complex, sequence (P00004 2-105 limits assumed, one chain of several): as above
cytochrome c, sequence (P00004 2-105 limits assumed): as the sequence (P00004 2-105 limits assumed, one chain of several) above

As to 2′,6′-Dmt-D-Arg-Phe-Lys-NH2 [SS-02], the “peroxidation rate of cytochrome c” value in assay [1] is given as “about 70 % of control”. In addition, the “specificity of peptide-phospholipid interaction” value in assay [2] is recorded as “specific for phospholipids with anionic headgroups”. The “loss of the negative Cotton peak at 419 nm caused by cardiolipin” value in assay [3] (30 μg/ml cardiolipin, peptide 1:1 with cytochrome c, pH 7.4) is recorded as “prevented”. Moreover, the “rate of cytochrome c reduction in the presence of cardiolipin” value in assay [4] (40 μM peptide, 20 μM cytochrome c, 100 μg/ml cardiolipin, 50 μM ascorbate, 10% with cardiolipin alone) is “about 60%”. Besides, the “oxidation of cytochrome c by cardiolipin (loss of the 550 nm peak)” value in assay [5] is recorded as “inhibition of cytochrome c oxidation”.
Consider F[dR]FK-NH2 [SS-20], for which the “O2 consumption in state 3 respiration” value in assay [6] (10 μM or 100 μM peptide, complex I or complex II substrates or TMPD/ascorbate) is listed as “increases O2 consumption in state 3 respiration”. The “electron flux measured by O2 consumption” value in assay [6] (100 μM peptide, 0.5 mM succinate) is reported as “promote electron flux”. For the same substance, the “protection against CL-induced disappearance of negative Cotton effect” value in assay [3] (30 μg/ml CL, 10 μM peptide, 20 mM HEPES pH 7.5, 25° C.) was “Protect the Heme Environment of Cytochrome c from the Acyl Chain of CL”. Besides, the “rate (kinetics) of cytochrome c reduction” value in assay [7] is recorded as “accelerate the kinetics of cytochrome c reduction”. For the same substance, the “CL inhibition of cytochrome c reduction” value in assay [4] (500 μM GSH) is “prevented CL inhibition of cytochrome c reduction”. For the same substance, the “rate of ATP production” value in assay [8] was “significant increase in the rate of ATP production”.

Source of the values: patent publication US10808008B2, “Aromatic-cationic peptides and uses of same” (Cornell University, priority 2012, dated 2020).
